pIC50: −log10 of the molar value.
Columns and labels:
[1] = molecular target: T1, AHR (Homo sapiens, UniProt P35869); experiment: In vitro assay 3: AHR-regulated CYP1A1 expression in human cell line (U937, quantitative PCR); format: cell-based; settings: human monocytic U937 cells, CYP1A1 expression induced with 200 μM KA, 6 hours, qPCR; read-out: Assay 3: Hum CYP1A1 Antagonism IC50
T1 sequence (P35869 11-848): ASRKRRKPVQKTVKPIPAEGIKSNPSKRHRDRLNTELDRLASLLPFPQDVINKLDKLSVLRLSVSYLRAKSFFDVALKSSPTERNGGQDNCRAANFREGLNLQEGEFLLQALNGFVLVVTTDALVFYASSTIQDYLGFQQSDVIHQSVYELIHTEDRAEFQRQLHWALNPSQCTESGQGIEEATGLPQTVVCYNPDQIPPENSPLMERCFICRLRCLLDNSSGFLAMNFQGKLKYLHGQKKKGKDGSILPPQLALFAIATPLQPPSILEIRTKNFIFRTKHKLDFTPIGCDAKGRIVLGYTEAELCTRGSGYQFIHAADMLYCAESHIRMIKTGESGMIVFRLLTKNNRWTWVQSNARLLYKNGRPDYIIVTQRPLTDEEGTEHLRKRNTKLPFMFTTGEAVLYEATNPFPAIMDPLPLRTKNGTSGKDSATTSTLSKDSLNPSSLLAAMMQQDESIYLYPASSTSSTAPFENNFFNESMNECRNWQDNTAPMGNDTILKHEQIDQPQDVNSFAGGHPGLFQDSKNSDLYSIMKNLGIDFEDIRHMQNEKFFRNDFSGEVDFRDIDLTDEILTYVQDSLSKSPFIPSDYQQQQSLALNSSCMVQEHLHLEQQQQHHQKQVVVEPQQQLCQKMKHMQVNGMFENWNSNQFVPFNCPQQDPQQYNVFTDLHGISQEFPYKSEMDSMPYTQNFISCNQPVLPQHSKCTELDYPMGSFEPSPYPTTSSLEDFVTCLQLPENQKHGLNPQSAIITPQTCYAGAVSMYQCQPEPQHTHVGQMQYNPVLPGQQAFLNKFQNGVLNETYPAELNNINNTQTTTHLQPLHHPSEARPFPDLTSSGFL
Description: In Vitro Assay 3: AHR-Regulated CYP1A1 Expression in Human Cell Line
To assess the AHR inhibitory activity of the substances described in this application, the ability thereof to antagonize ligand-induced AHR gene regulation in a dose-dependent manner was quantified. For this purpose, quantitative PCR analysis was used to determine expression of the AHR-regulated gene CYP1A1 in a human monocytic U937 cell line upon stimulation with 200 μM KA in the presence and absence of AHR inhibitor. U937 cells were sown at a concentration of 2×10^5 cells/well in 100 μl of growth medium (RPMI 1640, 20% FCS) in 96-well microtitre plates. CYP1A1 expression was induced with 200 μM KA (positive control) in the presence or absence of the substances for 6 hours. Human U937 cells were typically incubated with eight different concentrations of the substances (1 nM, 3 nM, 10 nM, 30 nM, 100 nM, 300 nM, 1 μM and 3 μM) and analyzed in duplicate on the same microtitre plate. After stimulation, cells were lysed with Nucleic Acid Lysis Solution (#4305895, Applied Biosystems) and RNA was isolated using the 6100 Nucleic Acid Preparation Station (Applied Biosystems) and reverse-transcribed to cDNA using SuperScript VILO cDNA synthesis kit (#11754-250, Invitrogen). Unstimulated cells were used as the negative control. Taqman probes for human CYP1A1 (Hs01054797_g1) and human HPRT (Hs02800695_m1) were used to analyze fold expression of CYP1A1 of HPRT. Quantitation was performed on a Taqman SDS7900HT.

[2] = molecular target: T1, AHR; experiment: In vitro assay 1: AHR-luc transactivation assay, antagonism in human cell line (U87 glioblastoma cells, kynurenic acid prestimulated); format: cell-based; parameters: U87 glioblastoma cells (ATCC) endogenously expressing AHR; host or cells: U87 glioblastoma cells, stably transfected with DRE-firefly luciferase and renilla reporter constructs only; settings: firefly luciferase DRE reporter, 150 μM kynurenic acid, 20 hours, read-out: Assay 1: AHR-luc Hum Antagonism IC50

pIC50 [1] | pIC50 [2] | SMILES
7.73 | 8.25 | O=C(N[C@@H]1CS(=O)(=O)C[C@@H]1O)c1cc(-c2ccc(C(F)(F)F)cc2)nn(-c2cccc(F)c2)c1=O (relative stereo) [Example 13, 2-(3-fluorophenyl)-N-[(cis)-4-hydroxy-1,1-dioxidotetrahydro-thiophen-3-yl]-3-oxo-6-[4-(trifluoromethyl)phenyl]-2,3-dihydropyridazine-4-carboxamide]
7.57 | 7.58 | O=C(N[C@H]1CS(=O)(=O)C[C@H]1O)c1cc(-c2ccc(Cl)cc2)nn(-c2cccc(F)c2)c1=O (racemic) [Example 55, 6-(4-Chlorophenyl)-2-(3-fluorophenyl)-N-[(cis)-4-hydroxy-1,1-dioxidotetrahydrothiophen-3-yl]-3-oxo-2,3-dihydropyridazine-4-carboxamide]
7.43 | 7.75 | O=C(N[C@@H]1CS(=O)(=O)C[C@@H]1O)c1cc(-c2ccc(C(F)(F)F)cc2)nn(-c2cccc(F)c2)c1=O (single isomer, unassigned) [Example 15, (−)-2-(3-fluorophenyl)-N-[(cis)-4-hydroxy-1,1-dioxidotetrahydro-thiophen-3-yl]-3-oxo-6-[4-(trifluoromethyl)phenyl]-2,3-dihydropyridazine-4-carboxamide]
7.36 | 7.52 | C[C@@H](CS(C)(=O)=O)NC(=O)c1cc(-c2ccc(Cl)cc2)nn(-c2cnn(C)c2)c1=O [Example 50, 6-(4-Chlorophenyl)-2-(1-methyl-1H-pyrazol-4-yl)-N-[(2S)-1-(methylsulfonyl)propan-2-yl]-3-oxo-2,3-di hydropyridazine-4-carboxamide]
8.12 | 8.12 | C[C@@H](C[S+](C)[O-])NC(=O)c1cc(-c2ccc(C(F)(F)F)cc2)nn(-c2cnn(C)c2)c1=O (single isomer, unassigned) [Example 24]
6.12 | 7.24 | N=S1(=O)C[C@H](O)[C@H](NC(=O)c2cc(-c3ccc(Cl)cc3)nn(-c3cccc(F)c3)c2=O)C1 (single isomer, unassigned) [Example 45, 6-(4-chlorophenyl)-2-(3-fluorophenyl)-N-[(cis)-4-hydroxy-1-imino-1-oxidotetrahydro-1H-1lambda4-thiophen-3-yl]-3-oxo-2,3-dihydropyridazine-4-carboxamide]
7.77 | 8.24 | O=C(N[C@H]1CS(=O)(=O)C[C@H]1O)c1cc(-c2ccc(Cl)cc2)nn(-c2cccc(F)c2)c1=O (single isomer, unassigned) [Example 57, 6-(4-Chlorophenyl)-2-(3-fluorophenyl)-N-[(cis)-4-hydroxy-1,1-dioxidotetrahydrothiophen-3-yl]-3-oxo-2,3-di hydropyridazine-4-carboxamide]
7.52 | 7.81 | CSC[C@H](C)NC(=O)c1cc(-c2ccc(Cl)cc2)nn(-c2cnn(C)c2)c1=O [Example 48, 6-(4-Chlorophenyl)-2-(1-methyl-1H-pyrazol-4-yl)-N-[(2S)-1-(methylsulfanyl)propan-2-yl]-3-oxo-2,3-dihydropyridazine-4-carboxamide]

From patent publication US11459312B2, “Sulphur substituted 3-oxo-2,3-dihydropyridazine-4-carboxamides” (Bayer Aktiengesellschaft, priority 2017, dated 2022)
